In publication PMC9202104 (BMC Biology, 2022):
Like-named read-outs stand apart in the source and are kept apart here.

Tests used:
[1] = test system: ZIKV human strain R103451; assay: Plaque assay, inhibition of ZIKV infection (strain R103451); assay type: cell-based; conditions: Zika virus, Vero C1008; plaque assay, Vero E6 cells, human strain; read-out: IC50 R103451
Protocol: (§1) After removal of the unbound compounds by centrifugation (after addition of 3% PEG-6000), ZIKV was incubated with Vero E6 cells in 24-well plates at 37°C for 1 h. The cells were then washed with PBS, overlaid with DMEM containing 1% carboxymethyl cellulose and 2% FBS, and cultured at 37°C for 4–5 days, followed by being stained with 0.5% crystal violet. […] Plaques in each well were calculated, and IC50 of compounds for each compound was calculated using the CalcuSyn computer program.

DENV-2-V594 = assay: Plaque assay, inhibition of DENV-2 infection in LLC-MK2 cells; assay type: cell-based; conditions: Dengue virus, DENV2
[2] = test system: 8 human ZIKV strains (PAN2016, R116265, PAN2015, FLR, R103451, PRVABC59, PLCal_ZV, IbH 30656); assay: microbe, parasite or virus in culture; assay type: cell-based; conditions: Zika virus, read-out: Average IC50 (human strains)
Protocol: as §1

[3] = test system: ZIKV human strain R116265; assay: Plaque assay, inhibition of ZIKV infection (strain R116265); assay type: cell-based; conditions: Zika virus, Vero C1008, Vero E6 cells
Protocol: as §1

[4] = test system: ZIKV human strain PAN2016 (2016/Panama); assay: Plaque assay, inhibition of ZIKV infection (strain PAN2016)
Protocol: as §1

ZIKV (PAN2016) = assay: Time-of-addition experiment in Vero E6 cells; assay type: cell-based, Zika virus; conditions: for inhibition at 15 µM: Zika virus, Vero C1008, Vero E6 cells
Protocol: Briefly, Vero E6 cells (10^5/well) and/or ZIKV were incubated in 24-well plates with or without the above compounds (15 μM) for 1 h before, 1 h after, or the same time during infection of ZIKV (the detailed procedures were described below and published previously). The following six conditions of ZIKV infection were tested: (1) condition 1: pretreatment of the virus. […] The plaque assay was performed following the standard protocol described above and before. (2) condition 2: pretreatment of cells. […] The unbound ZIKV was removed, and the cells were cultured and plaques calculated as in condition 1. (3) Condition 3: attachment. […] After removal of the unbound ZIKV and compounds, the cells were cultured and plaques calculated as in condition 1. (4) Condition 4: cotreatment. […] After removal of the unbound virus and compounds, the cells were cultured and plaques were calculated as in condition 1. (5) condition 5: fusion. Cells were incubated with ZIKV (PAN2016, 300 PFU) at 4°C for 1 h for ZIKV attachment. […] The unbound compounds were removed, and the cells were cultured and plaques calculated as in condition 1. (6) Condition 6: post-entry. Cells were incubated with ZIKV (PAN2016, 100 PFU) at 37°C for 1 h for ZIKV entry. […] The unbound compounds were then removed, and the cells were cultured and calculated for plaques as in condition 1. Since variant conditions may affect the formation of plaques, the use of different PFUs can ensure that the number of plaques in the DMSO control group is about 100/well for each condition.

[5] = test system: ZIKV rhesus macaque strain MR 766; assay: Plaque assay, inhibition of ZIKV infection (strain MR 766); assay type: cell-based; conditions: Zika virus, Vero C1008; plaque assay, Vero E6 cells, rhesus strain; read-out: IC50 MR 766
Protocol: as §1

[6] = molecular target: T1, binding of ZIKV EDIII to EDIII-specific neutralizing mAbs (Zika virus, UniProt A0A024B7W1); assay: ELISA competition assay, EDIII-mAb binding; conditions: for IC50: mAb 0.5 μg/mL
T1 construct: EDIII (residues 298-409 in E protein containing a C-terminal human Fc tag); human Fc (C)
T1 sequence (A0A024B7W1 588-699): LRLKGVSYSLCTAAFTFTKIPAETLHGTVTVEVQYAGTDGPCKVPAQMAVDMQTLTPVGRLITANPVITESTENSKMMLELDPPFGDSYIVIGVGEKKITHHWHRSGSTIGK
Protocol: ELISA was also used to determine the ability of ST087010 to inhibit the binding between ZIKV EDIII and EDIII-specific human mAbs (SMZAb5, ZKA64-LALA, ZV-67, or Z004) or EDI/II-specific human mAb (ZKA78) control. […] The plates were then sequentially incubated with HRP-conjugated anti-human IgG-Fab antibody and TMB substrate, followed by detection of A450 values. Percent inhibition (% inhibition) of compounds was calculated using the formula ((1-(EDIII-mAb-compound)/(EDIII-mAb))×100), and IC50 was obtained using the CalcuSyn computer program.

ZIKV NS2B-NS3 protease = molecular target: T2, ZIKV NS2B-NS3 protease (Zika virus, UniProt Q32ZE1); assay: Fluorescence-based NS2B-NS3 protease inhibition assay; assay type: biochemical
T2 construct: fused with the genes encoding NS3 protein (residues 1-185) through a linker (Gly4-Thr-Gly4); His6 (C); made in house; host or cells: E. coli
T2 sequence (Q32ZE1 1499-1683, added parts left off, change not shown): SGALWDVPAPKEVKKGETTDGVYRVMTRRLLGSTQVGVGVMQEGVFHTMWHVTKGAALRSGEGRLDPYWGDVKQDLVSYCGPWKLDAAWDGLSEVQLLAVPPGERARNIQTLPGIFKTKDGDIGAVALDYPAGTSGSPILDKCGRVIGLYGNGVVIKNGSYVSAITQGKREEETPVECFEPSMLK
Protocol: Substrate (benzoyl-norleucinelysine-lysine-arginine 7-amino-4-methylcoumarine (Bz-Nle-Lys-Lys-Arg-AMC, 4 μM)) (Bachem, Torrance, CA, USA) was added and incubated for 10 min. Fluorescence intensity was then measured at 460 nm (with excitation at 355 nm) using a microplate reader (FLUOstar Omega, BMG Labtech, USA). A total of 10 mM Tris-HCl, 20% glycerol, 1 mM CHAPS, and 5% DMSO (pH 8.5) were used as reaction and dilution buffers. Percent inhibition (% inhibition) of protease activity was measured in the presence or absence of serially diluted compounds based on the formula ((1-(NS2B-NS3-substrate-compound)/(NS2B-NS3-substrate))×100).

Cc1cc2c(C(C)C)c(O)c(O)c(/C=N/n3c(=O)[nH][nH]c3=O)c2c(O)c1-c1c(C)cc2c(C(C)C)c(O)c(O)c(/C=N/n3c(=O)[nH][nH]c3=O)c2c1O [ST087010]
IC50 [1]: 3.6 µM
IC50 (DENV-2-V594): 3.19 ± 0.01 µM
IC50 [2]: 2.9 µM
IC50 [3]: 2.9 µM
SI (CC50/IC50) ([4]; CC50 Vero E6 / IC50 ZIKV PAN2016): 15.63
IC50 ([4]; Zika virus, Vero C1008, in Homo sapiens, read-out: IC50 against infection of ZIKV PAN2016, plaque assay, Vero E6 cells): 3.2 µM
IC50 ([4]; read-out: IC50 against infection of ZIKV PAN2016, plaque assay, Vero E6 cells): 3.17 ± 0.18 µM
Inhibition of ZIKV infection, condition 2: pretreatment of cells (ZIKV (PAN2016); 15 μM, Vero E6 cells): no, or little
Inhibition of ZIKV infection, condition 4: cotreatment (ZIKV (PAN2016); 15 μM, Vero E6 cells): no, or little
Inhibition of ZIKV infection, condition 5: fusion (ZIKV (PAN2016); 15 μM, Vero E6 cells): no, or little
Inhibition of ZIKV infection, condition 1: pretreatment of the virus (ZIKV (PAN2016); 15 μM, virus incubated with compound at 37°C for 1 h before Vero E6 cells): almost completely inhibited
inhibition at 15 µM (ZIKV (PAN2016); 4°C 1 h, read-out: Inhibition of ZIKV infection, condition 3: attachment): < 40%
inhibition at 15 µM (ZIKV (PAN2016); read-out: Inhibition of ZIKV infection, condition 6: post-entry): < 20%
IC50 [5]: 3.5 µM
Inhibition with EDI/II-specific mAb control ZKA78 ([6]; ELISA competition, ZKA78 did not bind to EDIII): no inhibition
IC50 ([6]; IC50 blocking EDIII binding to mAb SMZAb5, ELISA competition): 5.72 µM
IC50 ([6]; IC50 blocking EDIII binding to mAb Z004, ELISA competition): 44.5 µM
IC50 ([6]; IC50 blocking EDIII binding to mAb ZKA64-LALA, ELISA competition): 4.17 µM
IC50 ([6]; IC50 blocking EDIII binding to mAb ZV-67, ELISA competition): 6.7 µM
IC50 (ZIKV NS2B-NS3 protease): 4.84 µM
